Assay results taken from patent publication US12643882B2, “Inhibitors of human respiratory syncytial virus and metapneumovirus” (priority 2022, dated 2026).

Assays:
RSV-A2-GFP virus = assay: microbe, parasite or virus in culture; type: cell-based, Human Respiratory Syncytial Virus; conditions: human respiratory syncytial virus, Calu-1, 96 h, read-out: RSV EC50, Calu-1 cells infected with RSV-A2-GFP, 96 hrs, GFP-expressing cells counted
Procedure, shortened: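 Assay-ready frozen Calu-1 cells at 20,000 cells/mL were infected with recombinant RSV-A2-GFP (MOI 1.2) in DMEM with 2% FBS. Cells were exposed to 10-point 3-fold compound dilutions for 96 h at 37° C. GFP-positive cells were counted by imaging, with same-well CellTiter-Glo for cytotoxicity, and IC50 and CC50 came from 4-parameter logistic fits.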

hMPV-GFP virus = assay: microbe, parasite or virus in culture; type: cell-based, human metapneumovirus; conditions: human metapneumovirus, Vero, 48 h, read-out: hMPV EC50, VERO cells infected with hMPV-GFP, 48 hrs, GFP-expressing cells counted
Procedure, shortened: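 VERO cells infected with GFP-expressing hMPV at MOI 1.25 were incubated 48 h at 37 °C with compound in 10-point 3-fold dilutions (typically 40,300–2 nM final). GFP-positive cells were counted by imaging. Same-well CellTiter-Glo gave cytotoxicity, and IC50/CC50 came from 4-parameter logistic fits.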

| Compound | EC50 (RSV-A2-GFP virus) | EC50 (hMPV-GFP virus) |
| --- | --- | --- |
| CC(C)(N)c1cc(O[C@H]2[C@@H]3CN(C(=O)c4cn(-c5ncccn5)nc4Cn4nccn4)C[C@@H]32)nc(-c2ccc(F)cc2)c1 [Example 130, (3-((2H-1,2,3-triazol-2-yl)methyl)-1-(pyrimidin-2-yl)-1H-pyrazol-4-yl)((1R,5S,6s)-6-((4-(2-aminopropan-2-yl)-6-(4-fluorophenyl)pyridin-2-yl)oxy)-3-azabicyclo[3.1.0]hexan-3-yl)methanone] | < 10 nM | > 100 nM |
| CC(C)(N)c1cc(O[C@H]2[C@@H]3CN(C(=O)c4cn(-c5ncccn5)nc4CCF)C[C@@H]32)nc(-c2ccc(F)cc2)c1 [Example 131, ((1R,5S,6s)-6-((4-(2-aminopropan-2-yl)-6-(4-fluorophenyl)pyridin-2-yl)oxy)-3-azabicyclo[3.1.0]hexan-3-yl)(3-(2-fluoroethyl)-1-(pyrimidin-2-yl)-1H-pyrazol-4-yl)methanone] | < 10 nM | > 100 nM |
| CC(C)(N)c1cc(O[C@H]2[C@@H]3CN(C(=O)c4cn(-c5ncccn5)nc4CC(F)F)C[C@@H]32)nc(-c2ccc(F)cc2)c1 [Example 132, ((1R,5S,6s)-6-((4-(2-aminopropan-2-yl)-6-(4-fluorophenyl)pyridin-2-yl)oxy)-3-azabicyclo[3.1.0]hexan-3-yl)(3-(2,2-difluoroethyl)-1-(pyrimidin-2-yl)-1H-pyrazol-4-yl)methanone] | < 10 nM | > 100 nM |
